From patent US20050222108A1, “Solvent-based sterilisation of pharmaceuticals” (priority 2002, published 2005)
Where two headings read alike, the source gives them in different places.

Experiments:
[1] = Solubility by w/w % assay of saturated solutions in various solvents; format: physicochemical; details: saturated solution, 21-23° C.
Experimental: The solubility of fluticasone propionate was measured by w/w % assay of saturated solutions in a variety of solvents at 21-23° C.

[2] = format: physicochemical; details: for Area %: 100° C. under nitrogen, in water
Experimental: A sample from the above example was heated to 100° C. under nitrogen for 30 hours to examine the stability of the drug under extended distillation times required on scale-up. No new impurities were evident in the area % chromatogram and the assay of the fluticasone propionate appears unaffected by extended periods at 100° C. in water.

[3] = Stability to distillation at atmospheric pressure (HPLC area % profile); format: physicochemical; details: Example 5
Experimental: In this example, a development of example 4, the distillation was performed at atmospheric pressure and the first distillation was halted when the pot temperature reached 99° C. […] A further 25 volumes of water were added and the distillation continued until 25 volumes of distillate had been removed.

w/w % solubility of fluticasone propionate ([1]; Acetone): 5.7 w/w %
w/w % solubility of fluticasone propionate ([1]; Ethanol): 0.4 w/w %
w/w % solubility of fluticasone propionate ([1]; Ethyl acetate): 0.2 w/w %
w/w % solubility of fluticasone propionate ([1]; Isopropanol): 0.3 w/w %
w/w % solubility of fluticasone propionate ([1]; tBME): 1.2 w/w %
Time chemically stable to distillation at 100° C. [2]: at least 30 hours
Assay of fluticasone propionate after extended periods at 100° C. in water ([2]; 100° C. in water, up to 30 hours, no new impurities in area % chromatogram): unaffected
Area % ([2]; Time 0 hr): 99.2%
Area % ([2]; Time 6 hr): 99.4%
Area % ([2]; Time 24 hr): 99.5%
Area % ([2]; Time 30 hr): 99.4%
Stability to distillation at 100° C. (HPLC area % profile, starting solid to final aqueous slurry) [3]: stable
Structure (SMILES): CCC(=O)O[C@]1(C(=O)SCF)[C@H](C)C[C@H]2[C@@H]3C[C@H](F)C4=CC(=O)C=C[C@]4(C)[C@@]3(F)[C@@H](O)C[C@@]21C [fluticasone propionate]
